According to patent US4966900A, “Cephalosporin β-lactam compound and medicinal composition” (priority 1986, dated 1990):
Converted amounts (≈) assume the structure as drawn. Counter-ions that a name gives are not always drawn.

Experiments:
Experiment in all cases: MIC
E. cloacae 1Y247 = assay type: cell-based; settings: Enterobacter cloacae, Table 6, read-out: MIC
Experimental: (§1) The minimum inhibition concentrations (MIC) of the compounds obtained in the respective examples described above were measured according to the standard method of Japanese Chemotherapy Association.

S. aureus IAA498 = assay type: cell-based; settings: Staphylococcus aureus
Experimental: as §1

S. aureus Smith = test system: S. aureus Smith
E. coli ML4707 = test system: E. coli ML4707
E. coli GN5482 = test system: E. coli GN5482
K. pneumoniae 4at521 = test system: K. pneumoniae 4at521
E. colacae GN7471 = test system: E. colacae GN7471
E. cloacae 908RN = settings: Enterobacter cloacae
C. freundii GN7391 = test system: C. freundii GN7391
S. marcescens GN10857 = test system: S. marcescens GN10857
P. vulgaris GN7919 = test system: P. vulgaris GN7919
P. aeruginosa GN10362 = settings: Pseudomonas aeruginosa, GN10362
P. aeruginosa 4au542 = test system: P. aeruginosa 4au542
P. aeruginosa 5D58-1 = test system: P. aeruginosa 5D58-1
P. cepacia OF189 = test system: P. cepacia OF189
P. maltophilia OF247 = settings: Stenotrophomonas maltophilia
E. cloacae 5D52-2 = settings: Enterobacter cloacae, 5D522
E. cloacae 5D63-2 = settings: Enterobacter cloacae, 5D632
E. cloacae 1V25 = settings: Enterobacter cloacae
C. freundii 5D60-1 = test system: C. freundii 5D60-1
C. freundii 1R523 = settings: Citrobacter freundii, 1R523
C. freundii 1R524 = settings: Citrobacter freundii, 1R524
C. freundii 1R526 = settings: Citrobacter freundii, 1R526
C. freundii 1R527 = settings: Citrobacter freundii, 1R527
C. freundii 1U589 = test system: C. freundii 1U589
C. freundii 1U692 = test system: C. freundii 1U692
[1] = Escherichia coli, ML4707, E. coli ML4707, Table 5
[2] = Escherichia coli, GN5482, E. coli GN5482, Table 5
[3] = Citrobacter freundii, GN7391, C. freundii GN7391, Table 5
[4] = Serratia marcescens, GN10857, S. marcescens GN10857, Table 5
[5] = Pseudomonas aeruginosa, 4AU542, P. aeruginosa 4au542, Table 5
[6] = Pseudomonas aeruginosa, 5D581, P. aeruginosa 5D58-1, Table 5
[7] = Burkholderia cepacia, OF189, P. cepacia OF189, Table 5

## CC(C)(ON=C(C(=O)NC1C(=O)N2C(C(=O)O)=C(CSc3c4c(nc5ncnn35)CCC4)CSC12)c1csc(N)n1)C(=O)NNC(=O)c1ccc(O)c(O)c1 (stereo not shown) [Example 36]
E. cloacae 1Y247
  MIC: 12.5 µg/mL (≈ 15.4 µM)
S. aureus IAA498; Table 5
  MIC: 12.5 µg/mL (≈ 15.4 µM)
S. aureus Smith; Staphylococcus aureus, Table 5
  MIC: 6.25 µg/mL (≈ 7.72 µM)
E. coli ML4707; [1]
  MIC: 0.012 µg/mL (≈ 0.0148 µM)
E. coli GN5482; [2]
  MIC: 0.012 µg/mL (≈ 0.0148 µM)
K. pneumoniae 4at521; Klebsiella pneumoniae, 4AT521
  MIC: 0.012 µg/mL (≈ 0.0148 µM)
E. colacae GN7471; Table 5
  MIC: 3.13 µg/mL (≈ 3.86 µM)
E. cloacae 908RN; E. cloacae 908RN, Table 6
  MIC: 12.5 µg/mL (≈ 15.4 µM)
E. cloacae 908RN; E. colacae 908RN, Table 5
  MIC: 3.13 µg/mL (≈ 3.86 µM)
C. freundii GN7391; [3]
  MIC: 3.13 µg/mL (≈ 3.86 µM)
C. freundii GN7391; Citrobacter freundii, GN7391, C. freundii GN7391, Table 6
  MIC: 6.25 µg/mL (≈ 7.72 µM)
S. marcescens GN10857; [4]
  MIC: 0.39 µg/mL (≈ 0.482 µM)
P. vulgaris GN7919; Proteus vulgaris, GN7919
  MIC: 0.78 µg/mL (≈ 0.963 µM)
P. aeruginosa GN10362
  MIC: 0.2 µg/mL (≈ 0.247 µM)
P. aeruginosa 4au542; [5]
  MIC: 0.39 µg/mL (≈ 0.482 µM)
P. aeruginosa 5D58-1; [6]
  MIC: 0.78 µg/mL (≈ 0.963 µM)
P. cepacia OF189; [7]
  MIC: 0.012 µg/mL (≈ 0.0148 µM)
P. maltophilia OF247; Table 5
  MIC: 0.2 µg/mL (≈ 0.247 µM)
E. cloacae 5D52-2
  MIC: 0.2 µg/mL (≈ 0.247 µM)
E. cloacae 5D63-2
  MIC: 0.39 µg/mL (≈ 0.482 µM)
E. cloacae 1V25
  MIC: 12.5 µg/mL (≈ 15.4 µM)
C. freundii 5D60-1; Citrobacter freundii, 5D601
  MIC: 1.56 µg/mL (≈ 1.93 µM)
C. freundii 1R523
  MIC: 0.2 µg/mL (≈ 0.247 µM)
C. freundii 1R524
  MIC: 0.2 µg/mL (≈ 0.247 µM)
C. freundii 1R526
  MIC: 0.2 µg/mL (≈ 0.247 µM)
C. freundii 1R527
  MIC: 0.2 µg/mL (≈ 0.247 µM)
C. freundii 1U589; Citrobacter freundii, 1U589
  MIC: 0.39 µg/mL (≈ 0.482 µM)
C. freundii 1U692; Citrobacter freundii, 1U692
  MIC: 0.39 µg/mL (≈ 0.482 µM)

## CC(C)(ON=C(C(=O)NC1C(=O)N2C(C(=O)O)=C(CSc3ccnc4ncnn34)CSC12)c1csc(N)n1)C(=O)NNC(=O)c1ccc(O)c(O)c1 (stereo not shown) [Example 38, 7-{2-[2-Amino-1,3-thiazol-4-yl]-2-[1-(3-(3,4-dihydroxybenzoyl)carbazoyl)-1-methylethoxyimino]acetamide}-3-[(s-triazolo[1,5-a]pyrimidin-7-yl)thiomethyl]-3-cephem-4-carboxylic acid.hydrochloride]
S. aureus IAA498; Table 5
  MIC: 3.13 µg/mL
S. aureus Smith; Staphylococcus aureus, Table 5
  MIC: 1.56 µg/mL
E. coli ML4707; [1]
  MIC: 0.012 µg/mL
E. coli GN5482; [2]
  MIC: 0.025 µg/mL
K. pneumoniae 4at521; Klebsiella pneumoniae, 4AT521
  MIC: 0.012 µg/mL
E. colacae GN7471; Table 5
  MIC: 3.13 µg/mL
E. cloacae 908RN; E. colacae 908RN, Table 5
  MIC: 25 µg/mL
C. freundii GN7391; [3]
  MIC: 25 µg/mL
S. marcescens GN10857; [4]
  MIC: 0.39 µg/mL
P. vulgaris GN7919; Proteus vulgaris, GN7919
  MIC: 1.56 µg/mL
P. aeruginosa GN10362
  MIC: 0.1 µg/mL
P. aeruginosa 4au542; [5]
  MIC: 0.1 µg/mL
P. aeruginosa 5D58-1; [6]
  MIC: 0.39 µg/mL
P. cepacia OF189; [7]
  MIC: 0.025 µg/mL
P. maltophilia OF247; Table 5
  MIC: 0.78 µg/mL

## Cc1cc(SCC2=C(C(=O)O)N3C(=O)C(NC(=O)C(=NOC(C)(C)C(=O)NNC(=O)c4ccc(O)c(O)c4)c4csc(N)n4)[C@H]3SC2)n2nc(C(F)(F)F)nc2n1 (stereo partly shown) [Example 55, 7-{2-[2-Amino-1,3-thiazol-4-yl]-2-[1-(3-(3,4-dihydroxybenzoyl)carbazoyl)-1-methylethoxyimino]acetamido}-3-[(5-methyl-2-trifluoromethyl-s-triazolo[1,5-a]pyrimidin-7-yl)-thiomethyl]-3-cephem-4-carboxylic acid]
S. aureus IAA498; Table 7
  MIC: 6.25 µg/mL (≈ 7.34 µM)
S. aureus Smith; Staphylococcus aureus, Table 7
  MIC: 6.25 µg/mL (≈ 7.34 µM)
E. coli ML4707; Escherichia coli, ML4707, E. coli ML4707, Table 7
  MIC: 0.05 µg/mL (≈ 0.0587 µM)
E. coli GN5482; Escherichia coli, GN5482, E. coli GN5482, Table 7
  MIC: 0.025 µg/mL (≈ 0.0293 µM)
K. pneumoniae 4at521; Klebsiella pneumoniae, 4AT521
  MIC: 0.025 µg/mL (≈ 0.0293 µM)
E. colacae GN7471; Table 7
  MIC: 25 µg/mL (≈ 29.3 µM)
E. cloacae 908RN; E. colacae 908RN, Table 7
  MIC: 12.5 µg/mL (≈ 14.7 µM)
C. freundii GN7391; Citrobacter freundii, GN7391, C. freundii GN7391, Table 7
  MIC: 6.25 µg/mL (≈ 7.34 µM)
S. marcescens GN10857; Serratia marcescens, GN10857, S. marcescens GN10857, Table 7
  MIC: 1.56 µg/mL (≈ 1.83 µM)
P. vulgaris GN7919; Proteus vulgaris, GN7919
  MIC: 1.56 µg/mL (≈ 1.83 µM)
P. aeruginosa GN10362
  MIC: 0.39 µg/mL (≈ 0.458 µM)
P. aeruginosa 4au542; Pseudomonas aeruginosa, 4AU542, P. aeruginosa 4au542, Table 7
  MIC: 0.39 µg/mL (≈ 0.458 µM)
P. aeruginosa 5D58-1; Pseudomonas aeruginosa, 5D581, P. aeruginosa 5D58-1, Table 7
  MIC: 0.39 µg/mL (≈ 0.458 µM)
P. cepacia OF189; Burkholderia cepacia, OF189, P. cepacia OF189, Table 7
  MIC: 0.05 µg/mL (≈ 0.0587 µM)
P. maltophilia OF247; Table 7
  MIC: 1.56 µg/mL (≈ 1.83 µM)

## cephazoline [CAZ, reference compound]
S. aureus Smith; Table 5
  MIC: 6.25 µg/mL
E. coli ML4707; E. coli ML4707, Table 5
  MIC: 0.05 µg/mL
E. coli GN5482; E. coli GN5482, Table 5
  MIC: 0.78 µg/mL
K. pneumoniae 4at521; K. pneumoniae 4at521, Table 5
  MIC: 0.10 µg/mL
E. colacae GN7471; Table 5
  MIC: 3.13 µg/mL
C. freundii GN7391; C. freundii GN7391, Table 5
  MIC: > 100.00 µg/mL
C. freundii GN7391; C. freundii GN7391, Table 6
  MIC: > 100 µg/mL
S. marcescens GN10857; S. marcescens GN10857, Table 5
  MIC: 1.56 µg/mL
P. vulgaris GN7919; P. vulgaris Gn7919, Table 5
  MIC: 1.56 µg/mL
P. aeruginosa 4au542; P. aeruginosa 4au542, Table 5
  MIC: 1.56 µg/mL
P. aeruginosa 5D58-1; P. aeruginosa 5D58-1, Table 5
  MIC: 0.78 µg/mL
P. cepacia OF189; P. cepacia OF189, Table 5
  MIC: 3.13 µg/mL
C. freundii 5D60-1; C. freundii 5D60-1, Table 6
  MIC: > 100 µg/mL
C. freundii 5D60-1; C. freundii 5D60-1, Table 8
  MIC: > 100 µg/mL
C. freundii 1U589; C. freundii 1U589, Table 6
  MIC: 100 µg/mL
C. freundii 1U589; C. freundii 1U589, Table 8
  MIC: 100 µg/mL
C. freundii 1U692; C. freundii 1U692, Table 6
  MIC: 100 µg/mL
C. freundii 1U692; C. freundii 1U692, Table 8
  MIC: 50.000 µg/mL
